Assay results as given in PubChem BioAssay AID1963827 (Molecular Pharmacology Branch, DTP, NCI, 2024).

System: 994946-033-R-J1-PDC complex spheroid viability
Experiment: Anticancer human tumor 994946-033-R-J1-PDC patient-derived melanoma cell line growth inhibition [POLQ]
Conditions: for IC50: curve of first compound; for viability, T/C: stronger effect = lower value
Summary of the method: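 PDC + HUVEC + MSC complex spheroids; POLQ inhibitors ± partner drugs; top conc. at/near clinical Cmax, else 10 microM (SN-38 1 microM), half-log dilutions; 37 degrees C, 5% CO2.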

[1] = second compound 0.0316 µM, first compound 0.0316 µM
[2] = second compound 0.0316 µM, first compound 0.1 µM
[3] = second compound 0.0316 µM, first compound 0.316 µM
[4] = second compound 0.0316 µM, first compound 1 µM
[5] = second compound 0.0316 µM, first compound 3.16 µM
[6] = second compound 0.0316 µM, first compound 10 µM
[7] = second compound 0.1 µM, first compound 0.0316 µM
[8] = second compound 0.1 µM, first compound 0.1 µM
[9] = second compound 0.1 µM, first compound 0.316 µM
[10] = second compound 0.1 µM, first compound 1 µM
[11] = second compound 0.1 µM, first compound 3.16 µM
[12] = second compound 0.1 µM, first compound 10 µM
[13] = second compound 0.316 µM, first compound 0.0316 µM
[14] = second compound 0.316 µM, first compound 0.1 µM
[15] = second compound 0.316 µM, first compound 0.316 µM
[16] = second compound 0.316 µM, first compound 1 µM
[17] = second compound 0.316 µM, first compound 3.16 µM
[18] = second compound 0.316 µM, first compound 10 µM
[19] = second compound 1 µM, first compound 0.0316 µM
[20] = second compound 1 µM, first compound 0.1 µM
[21] = second compound 1 µM, first compound 0.316 µM
[22] = second compound 1 µM, first compound 1 µM
[23] = second compound 1 µM, first compound 3.16 µM
[24] = second compound 1 µM, first compound 10 µM
[25] = second compound 3.16 µM, first compound 0.0316 µM
[26] = second compound 3.16 µM, first compound 0.1 µM
[27] = second compound 3.16 µM, first compound 0.316 µM
[28] = second compound 3.16 µM, first compound 1 µM
[29] = second compound 3.16 µM, first compound 3.16 µM
[30] = second compound 3.16 µM, first compound 10 µM
[31] = second compound 10 µM, first compound 0.0316 µM
[32] = second compound 10 µM, first compound 0.1 µM
[33] = second compound 10 µM, first compound 0.316 µM
[34] = second compound 10 µM, first compound 1 µM
[35] = second compound 10 µM, first compound 3.16 µM
[36] = second compound 10 µM, first compound 10 µM
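Further: spheroids exposed to drugs for 7 days.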
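Wherever viability, T/C is given: 100% = DMSO vehicle treated spheroids.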

For `CC1COCCN1c1cc(-c2ccnn2C)c2ccnc(-c3ccn[nH]3)c2n1` (stereo not drawn) + Cc1cccc(N(C)C(=O)C2C(O)CCN2c2nc(C)cc(C(F)(F)F)c2C#N)c1, the IC50 (second compound 0.0316 µM) was 60.3 nM, the IC50 (second compound 0.1 µM) was 53.6 nM and the IC50 (second compound 0.316 µM) was 51.2 nM. For the same compound, the IC50 (second compound 1 µM) was 57 nM, the IC50 (second compound 3.16 µM) was < 31.6 nM and the IC50 (second compound 10 µM) was 88.2 nM. The viability, T/C [1] was 77.7%, the viability, T/C [2] was 27.9% and the viability, T/C [3] was 13%. For the same compound, the viability, T/C [4] was 24.4%, the viability, T/C [5] was 16.6% and the viability, T/C [6] was 8.57%. For the same compound, the viability, T/C [7] was 69.1%, the viability, T/C [8] was 28.4% and the viability, T/C [9] was 14.2%. The viability, T/C [10] was 31.3%, the viability, T/C [11] was 15.1% and the viability, T/C [12] was 7.78%. For the same compound, the viability, T/C [13] was 72.5%, the viability, T/C [14] was 18.6% and the viability, T/C [15] was 25.1%. For the same compound, the viability, T/C [16] was 12.4%, the viability, T/C [17] was 15.7% and the viability, T/C [18] was 7.71%. For the same compound, the viability, T/C [19] was 63.4%, the viability, T/C [20] was 33.9% and the viability, T/C [21] was 29.9%. It also gave a viability, T/C [22] of 16%, a viability, T/C [23] of 13.6% and a viability, T/C [24] of 7.27%. The viability, T/C [25] was 49%, the viability, T/C [26] was 35.3% and the viability, T/C [27] was 18.5%. For the same compound, the viability, T/C [28] was 12.7%, the viability, T/C [29] was 11% and the viability, T/C [30] was 6.95%. The viability, T/C [31] was 81.8%, the viability, T/C [32] was 42% and the viability, T/C [33] was 30.7%. It also gave a viability, T/C [34] of 21.6%, a viability, T/C [35] of 15.3% and a viability, T/C [36] of 8.65%.

For `CCCS(=O)(=O)Nc1ccc(F)c(C(=O)c2c[nH]c3ncc(-c4ccc(Cl)cc4)cc23)c1F` + Cc1cccc(N(C)C(=O)C2C(O)CCN2c2nc(C)cc(C(F)(F)F)c2C#N)c1, the IC50 (second compound 0.0316 µM) was 6380 nM, the IC50 (second compound 0.1 µM) was 6170 nM and the IC50 (second compound 0.316 µM) was 6510 nM. For the same compound, the IC50 (second compound 1 µM) was 4950 nM, the IC50 (second compound 3.16 µM) was 6020 nM and the IC50 (second compound 10 µM) was 5540 nM. It also gave a viability, T/C [1] of 67.5%, a viability, T/C [2] of 102% and a viability, T/C [3] of 94.3%. For the same compound, the viability, T/C [4] was 81.1%, the viability, T/C [5] was 85.7% and the viability, T/C [6] was 27.1%. It also gave a viability, T/C [7] of 91.3%, a viability, T/C [8] of 110% and a viability, T/C [9] of 67.4%. For the same compound, the viability, T/C [10] was 115%, the viability, T/C [11] was 88.2% and the viability, T/C [12] was 22.4%. It also gave a viability, T/C [13] of 78.7%, a viability, T/C [14] of 101% and a viability, T/C [15] of 95%. The viability, T/C [16] was 104%, the viability, T/C [17] was 99.3% and the viability, T/C [18] was 22.9%. The viability, T/C [19] was 64.8%, the viability, T/C [20] was 71.4% and the viability, T/C [21] was 81.6%. It also gave a viability, T/C [22] of 93%, a viability, T/C [23] of 63.7% and a viability, T/C [24] of 20.9%. It also gave a viability, T/C [25] of 103%, a viability, T/C [26] of 76.3% and a viability, T/C [27] of 97.3%. For the same compound, the viability, T/C [28] was 84.9%, the viability, T/C [29] was 95.3% and the viability, T/C [30] was 17.4%. It also gave a viability, T/C [31] of 88.4%, a viability, T/C [32] of 84.6% and a viability, T/C [33] of 112%. It also gave a viability, T/C [34] of 95.6%, a viability, T/C [35] of 80.9% and a viability, T/C [36] of 17.1%.

With `COc1ccc([C@@H](O)c2cc(-c3ncnc4cc(N5CCOCC5)ccc34)c(F)cc2Cl)nn1` + Cc1cccc(N(C)C(=O)C2C(O)CCN2c2nc(C)cc(C(F)(F)F)c2C#N)c1 the IC50 (second compound 0.0316 µM) was 4060 nM, the IC50 (second compound 0.1 µM) was 6540 nM and the IC50 (second compound 0.316 µM) was 2250 nM. The IC50 (second compound 1 µM) was 6160 nM, the IC50 (second compound 3.16 µM) was 2650 nM and the IC50 (second compound 10 µM) was 6200 nM. For the same compound, the viability, T/C [1] was 108%, the viability, T/C [2] was 95.1% and the viability, T/C [3] was 106%. It also gave a viability, T/C [4] of 64.1%, a viability, T/C [5] of 60.7% and a viability, T/C [6] of 32.5%. The viability, T/C [7] was 90.9%, the viability, T/C [8] was 105% and the viability, T/C [9] was 93.3%. The viability, T/C [10] was 78.5%, the viability, T/C [11] was 71.6% and the viability, T/C [12] was 38.4%. The viability, T/C [13] was 118%, the viability, T/C [14] was 94.1% and the viability, T/C [15] was 103%. It also gave a viability, T/C [16] of 60.4%, a viability, T/C [17] of 45.6% and a viability, T/C [18] of 45.1%. It also gave a viability, T/C [19] of 104%, a viability, T/C [20] of 96.6% and a viability, T/C [21] of 82%. For the same compound, the viability, T/C [22] was 105%, the viability, T/C [23] was 60.9% and the viability, T/C [24] was 42.1%. The viability, T/C [25] was 115%, the viability, T/C [26] was 125% and the viability, T/C [27] was 101%. The viability, T/C [28] was 60.5%, the viability, T/C [29] was 56.8% and the viability, T/C [30] was 38.6%. For the same compound, the viability, T/C [31] was 74.9%, the viability, T/C [32] was 101% and the viability, T/C [33] was 60.3%. For the same compound, the viability, T/C [34] was 76.6%, the viability, T/C [35] was 62.7% and the viability, T/C [36] was 41.1%.

With `COc1cccc(OCCCN)c1-c1cc(Nc2cnc(C#N)cn2)n[nH]1` + Cc1cccc(N(C)C(=O)C2C(O)CCN2c2nc(C)cc(C(F)(F)F)c2C#N)c1 the IC50 (second compound 0.0316 µM) was 25.6 nM, the IC50 (second compound 0.1 µM) was 14.7 nM and the IC50 (second compound 0.316 µM) was 17.7 nM. For the same compound, the IC50 (second compound 1 µM) was 9.64 nM, the IC50 (second compound 3.16 µM) was 14.3 nM and the IC50 (second compound 10 µM) was 79.8 nM. For the same compound, the viability, T/C (second compound 0.0316 µM, first compound 0.00316 µM) was 96%, the viability, T/C (second compound 0.0316 µM, first compound 0.01 µM) was 93.4% and the viability, T/C [1] was 40.3%. It also gave a viability, T/C [2] of 22.7%, a viability, T/C [3] of 22% and a viability, T/C [4] of 17.4%. The viability, T/C (second compound 0.1 µM, first compound 0.00316 µM) was 99.8%, the viability, T/C (second compound 0.1 µM, first compound 0.01 µM) was 60.3% and the viability, T/C [7] was 29.9%. The viability, T/C [8] was 19%, the viability, T/C [9] was 19.1% and the viability, T/C [10] was 18.6%. It also gave a viability, T/C (second compound 0.316 µM, first compound 0.00316 µM) of 76.6%, a viability, T/C (second compound 0.316 µM, first compound 0.01 µM) of 68.5% and a viability, T/C [13] of 31.3%. The viability, T/C [14] was 20.1%, the viability, T/C [15] was 24.2% and the viability, T/C [16] was 12.4%. For the same compound, the viability, T/C (second compound 1 µM, first compound 0.00316 µM) was 120%, the viability, T/C (second compound 1 µM, first compound 0.01 µM) was 44.5% and the viability, T/C [19] was 36.8%. The viability, T/C [20] was 33.1%, the viability, T/C [21] was 27% and the viability, T/C [22] was 18.6%. The viability, T/C (second compound 3.16 µM, first compound 0.00316 µM) was 88.9%, the viability, T/C (second compound 3.16 µM, first compound 0.01 µM) was 51% and the viability, T/C [25] was 46.8%. The viability, T/C [26] was 18.1%, the viability, T/C [27] was 28.9% and the viability, T/C [28] was 18.5%. The viability, T/C (second compound 10 µM, first compound 0.00316 µM) was 68%, the viability, T/C (second compound 10 µM, first compound 0.01 µM) was 57.6% and the viability, T/C [31] was 86.7%. It also gave a viability, T/C [32] of 44.9%, a viability, T/C [33] of 38.2% and a viability, T/C [34] of 23.5%.
